According to patent US20240294545A1 (CSPC Zhongqi Pharmaceutical Technology (Shijiazhuang) Co., …, priority 2020, published 2024):
Marks after values point to notes of the source that are not given here.

Legend:
[1] = test system: subcutaneous xenograft tumor of human non-small cell lung cancer cell line NCI-H441; assay: NCI-H441 subcutaneous xenograft, combined with irinotecan liposome injection; assay type: in vivo, NU/NU mice; conditions: for D 17 TGI / D 17 TV (MEAN ± SD) / Tumor weight / Tumor weight inhibitory rate: compound 25 mg/kg intragastric + irinotecan liposome 2.5 mg/kg ip; for D 17 TGI / D 17 TV (MEAN ± SD): day 17; for Tumor weight / Tumor weight inhibitory rate: end of test d17
Method: 6 Efficacy Test of the Compounds of the Present Disclosure Combined with Irinotecan Liposome Injection on Inhibiting the Growth of Subcutaneous Xenograft Tumor of Human Non-Small Cell Lung Cancer Cell Line NCI-H441
6.1 Experimental Animals: NU/NU Mice, SPF, Female, 20 to 30 g.
Irinotecan liposome injection (HE072), 43 mg:10 mL, milky white liquid, batch No. B37191202, provided by Preparation Research Institute 2 from CSPC Zhongqi Pharmaceutical Technology (Shijiazhuang) Co., Ltd., diluted to an appropriate concentration with 5% glucose injection while testing.
NCI-H441 cells, provided by Nanjing Kebai Biotechnology Co., Ltd.; 1640 culture medium (gibco Company):fetal bovine serum (Lanzhou Bailing)=90%:10%, 37° C., 5% CO2.
NU/NU nude mice were subcutaneously inoculated with NCI-H441 human non-small cell lung cancer cells. When the mean tumor volume reached 170 to 172 mm^3 (15 days after inoculation), the animals were evenly divided into groups according to the tumor volume (d0), with 6 mice in each group. 2.5 mg/kg of HE072 was administered intraperitoneally once a week for 2 times. Vehicle control, 25 mg/kg of A-193, 25 mg/kg of A-182, and 25 mg/kg of AZD1390 were administered intragastrically once a day, from Monday to Thursday every week except Friday to Sunday, for 2 weeks (8 times). The tumor volume was measured twice a week, the body weight of mouse was weighed every day, and the data were recorded. The tumor volume (TV) was calculated according to the formula: TV=½×a×b2, wherein a and b represent the long and short diameters of tumor, respectively. Tumor growth inhibitory rate TGI (%)=[1−(Ti−T0)/(Vi−V0)]×100, wherein Ti represents the mean tumor volume of a given treatment group on a certain day; TO represents the mean tumor volume of this treatment group at the beginning of administration; Vi represents the mean tumor volume of the vehicle control group on a certain day (the same day as that in Ti); V0 represents the mean tumor volume of the vehicle control group at the beginning of administration. At the end of the test (d17), the animals were sacrificed, the tumors were stripped and weighed, and the tumor weight inhibitory rates were calculated.

[2] = test system: intracranial murine glioma GL-261-Luc; assay: Intracranial murine glioma GL-261-Luc model, combined with radiotherapy; assay type: in vivo, C57BL/6 mice; conditions: for D17 BLI / D 17 TGI: compound 10 mg/kg intragastric qd × 5 + IR 2 Gy; for D17 BLI: day 17; for D 17 TGI: day 17, from bioluminescence
Method: 8 Efficacy Test of the Compounds of the Present Disclosure Combined with Radiotherapy in the Intracranial Murine Glioma GL-261-Luc Model
8.1 Experimental Animals: C57BL/6 Mice, SPF, Female, 19 to 22 g.
GL-261-Luc tumor cells, DMEM medium:fetal bovine serum=90%:10%, accompanied by adding […] L-Glu, 37° C., 5% CO2.
Female C57BL/6 mice were anesthetized with Shutai 50 (60 mg/mL) and thiazine (1.5 mg/mL). Buprenorphine (0.1 mg/kg) was injected subcutaneously 30 min before operation and 6 h after operation to relieve pain. The operation area was disinfected with 70% ethanol solution. A sagittal incision was made on the parietal-occipital bone of anesthetized mice with a sterile scalpel, after cleaning the exposed skull surface with 3% hydrogen peroxide solution, tumor cells were injected. After injection, the skull was cleaned with 3% hydrogen peroxide solution, dried with a sterile dry cotton swab, and the incision was sutured. The state of mice was examined continuously to ensure that mice fully recovered from anesthesia.
The inoculated mice were weighed and intraperitoneally injected with […] (150 mg/kg). After 10 min injection, the animals were anesthetized with a mixture of oxygen and isoflurane. When the animal was completely anesthetized, it was moved into the imaging room for bioluminescence detection. The bioluminescence signal of the whole animal was measured and recorded for the image.
Bioluminescence detection was performed on the second day after operation, and the tumor-bearing mice were randomly divided into groups according to the intensity of bioluminescence. The specific groups were as follows. The administration route was intragastric administration and then JR 1 h after administration.
After grouping, bioluminescence detection was performed 1 to 2 times a week, according to the bioluminescence data, tumor growth inhibitory rate was calculated as follows: TGI (%)=[1−(Ti−T0)/(Vi−V0)]×100, wherein Ti represents the mean bioluminescence data of a given treatment group on a certain day; T0 represents the mean bioluminescence data of this treatment group at the beginning of administration; Vi represents the mean bioluminescence data of the vehicle control group on a certain day (the same day as that in Ti); V0 represents the mean bioluminescence data of the vehicle control group at the beginning of administration.

Structure (SMILES)	inhibitory effect on tumor volume and tumor weight, in words ([1]; combined with irinotecan liposome injection, compared with AZD1390)	D 17 TGI [1] [%]	D 17 TV (MEAN ± SD) [1]	Tumor weight [1] [g]	Tumor weight inhibitory rate [1] [%]	anti-tumor activity, in words ([2]; combined with radiotherapy, compared with AZD1390)	D17 BLI [2]	D 17 TGI [2] [%]
Cn1c(=O)n2c3c4c(c(-c5ccc(OCCCN6CCCCC6)nc5)c(F)cc4ncc31)NCC2(C)C [Example A-193, 6-fluoro-2,10,10-trimethyl-7-(6-(3-(piperidin-1-yl)propoxy)pyridin-3-yl)-2,8,9,10-tetrahydro-1H-2,4,8,10a-tetraazanaphtho[2,1,8-cde]azulen-1(2H)-one]	higher than those of AZD1390	87.5	225.9 ± 69.4***^### mm^3	0.24 ± 0.06	60.2	equivalent to that of AZD1390	4.94*** LOG10	122.49
CC(C)n1c(=O)n(C)c2cnc3cc(F)c(-c4ccc(OCCCN5CCCCC5)nc4)cc3c21 [AZD1390, reference compound]	–	60.3	342.8 ± 110.6*** mm^3	0.32 ± 0.09	45.3	–	4.90*** LOG10	124.08
